Tested on: AR
Experiment: Silencing of AR with siRNA in prostate cancer cell lines; AR, PSMA expression (FACS, western blot) and PSA secretion
Assay type: cell-based, human
Conditions: FACS analysis of LNCaP, MDA-Pca-2b and LAPC-4 cells (FIG. 6)
Experimental: For western blots, cells were lysed with Cell Lysis Buffer (Cell Signaling Technology, Danvers, Mass.) containing 1 mM phenylmethylsulphonyl fluoride (EMD Chemicals, Gibbstown, N.J.). Equal amounts of protein were applied in each well on a 10% Tris-HCl gel (Bio-Rad Laboratories, Hercules, Calif.). The proteins were transferred onto Immobilon-P Membranes (Millipore, Billerica, Mass.), after which the filters were probed with the following reagents: murine anti-PSMA mAb J591, murine mAb anti-AR (AR441), rabbit anti-human AR, murine mAb anti-human beta-actin, and/or goat polyclonal anti-GAPDH. For quantitative western blots, the Li-cor Odyssey Infrared Imaging System (Lincoln, Nebr.) was used. With this system, two different proteins of the same molecular weight (e.g., PSMA and AR) can be detected simultaneously and quantified on the same blot using two different antibodies from two different species (mouse and rabbit) followed by detection with two IRDye labeled secondary antibodies. […] After washing, the membranes were scanned and the bands were quantified with the Odyssey Infrared Imaging System.
Fluorescence-activated cell sorting (FACS) analysis was also employed in these examples0. […]

non-targeted-siRNA: non-targeting control siRNA 5′-CCUACGCCACCAAUUUCGU-3′ (Dharmacon) (chemistry not given here)
AR expression: did not affect expression | PSMA expression: did not affect expression

— patent US20140099257A1, “Androgen Suppression, Prostate-Specific Membrane Antigen and the Concept of Conditionally Enhanced Vulnerability” (CORNELL UNIVERSITY, priority 2012, published 2014)
